{
  "source": "patent US20260209217A1",
  "about": "“CRYSTALLINE FORMS OF (S)-5-((3-(4-(4-FLUOROPHENYL)-1H-IMIDAZOL-2-YL)CHROMAN-6-YL)OXY)-3,4-DIHYDRO-1,8-NAPHTHYRIDIN-2(1H)-ONE” (Jazz Pharmaceuticals Ireland Limited, priority 2022, published 2026)",
  "test": "Solubility / in vitro dissolution in biorelevant media",
  "type": "physicochemical",
  "description": "In vitro dissolution profiles were analyzed for Form A and Form F. In vitro drug dissolution and release testing can provide insight into a drug's in vivo performance such as bioavailability.\nBecause Forms A and F were selected for further pharmaceutical development, dissolution tests were performed on these forms. The tests were performed at different pH and in biorelevant media: hydrochloric acid (HCl), fasted state simulated gastric fluid (FaSSGF), fasted state simulated intestinal fluid (FaSSIF), and fed state simulated intestinal fluid (FeSSIF) (75 rpm, 900 mL). Three 10 mg and 50 mg capsules were analyzed as shown below in Table 18. The capsules include those including only Form A, 90% Form A spiked with 10% of Form F, and Form F. The results are shown in FIGS. 14A-14C (10 mg capsules) and FIGS. 15A-15C (50 mg capsules).",
  "data": [
    {"molecule": "O=C1CCc2c(Oc3ccc4c(c3)C[C@@H](c3nc(-c5ccc(F)cc5)c[nH]3)CO4)ccnc2N1", "note": "[Compound I, (S)-5-((3-(4-(4-fluorophenyl)-1H-imidazol-2-yl)chroman-6-yl)oxy)-3,4-dihydro-1,8-naphthyridin-2(1H)-one]", "values": [
      {"measurement": "solubility", "value": "poorly soluble"}
    ]}
  ]
}
